Test results reported in ChEMBL document CHEMBL4825686, “HTS-based discovery and optimization of novel positive allosteric modulators of the α7 nicotinic acetylcholine receptor” (Eur J Med Chem, 2021).
≈ marks a conversion by molar mass, not a printed value. Calls of active or inactive are those of the source. The calls are words filed in the database; no cut-off is given here.

Key:
[1] = Ratio of drug level in Wistar rat brain to plasma at 3 mg/kg, ip measured after 35 mins by HPLC-MS/MS analysis; assay type: ADME, organism-based; conditions: read-out: BPR
[2] = Mutagenicity in Escherichia coli WP2 uvrA in presence of rat liver S9 fraction by AMES test; assay type: toxicity, subcellular
[3] = target: T1, Neuronal acetylcholine receptor; alpha3/beta4 (Homo sapiens) (UniProt P30926+P32297); assay: Agonist activity at alpha3beta4 nAChR (unknown origin) upto 30 uM by automated Q-patch clamp assay; conditions: dose microM <=30
[4] = Plasma concentration in NMRI mouse at 0.3 mg/kg, ip measured after 1 hr by HPLC-MS/MS analysis; assay type: ADME, organism-based
[5] = Mutagenicity in Salmonella typhimurium TA100 in presence of rat liver S9 fraction by AMES test; assay type: toxicity, subcellular; conditions: salmonella enterica subsp. enterica serovar typhimurium
[6] = Plasma concentration in Wistar rat at 3 mg/kg, ip measured after 35 mins by HPLC-MS/MS analysis; assay type: ADME, organism-based
[7] = Mutagenicity in Salmonella typhimurium TA1537 in absence of rat liver S9 fraction by AMES test; assay type: toxicity; conditions: salmonella enterica subsp. enterica serovar typhimurium
[8] = Ratio of drug level in Wistar rat brain to plasma at 1 mg/kg, ip measured after 35 mins by HPLC-MS/MS analysis; assay type: ADME, organism-based; conditions: read-out: BPR
[9] = Ratio of drug level in Wistar rat brain to plasma at 10 mg/kg, ip measured after 35 mins by HPLC-MS/MS analysis; assay type: ADME, organism-based; conditions: read-out: BPR
[10] = target: T2, Neuronal acetylcholine receptor subunit alpha-7 (Homo sapiens, UniProt P36544); assay: Positive allosteric modulation of human alpha7 nAChR expressed in HEK293 cells assessed as inhibition of choline-evoked current desensitization measured after 6 to 10 mins at -80 mV holding potential by automated whole cell patch clamp analysis; assay type: cell-based; conditions: filed as positive allosteric modulator, time 6-10 min
T2 sequence (P36544 whole entry): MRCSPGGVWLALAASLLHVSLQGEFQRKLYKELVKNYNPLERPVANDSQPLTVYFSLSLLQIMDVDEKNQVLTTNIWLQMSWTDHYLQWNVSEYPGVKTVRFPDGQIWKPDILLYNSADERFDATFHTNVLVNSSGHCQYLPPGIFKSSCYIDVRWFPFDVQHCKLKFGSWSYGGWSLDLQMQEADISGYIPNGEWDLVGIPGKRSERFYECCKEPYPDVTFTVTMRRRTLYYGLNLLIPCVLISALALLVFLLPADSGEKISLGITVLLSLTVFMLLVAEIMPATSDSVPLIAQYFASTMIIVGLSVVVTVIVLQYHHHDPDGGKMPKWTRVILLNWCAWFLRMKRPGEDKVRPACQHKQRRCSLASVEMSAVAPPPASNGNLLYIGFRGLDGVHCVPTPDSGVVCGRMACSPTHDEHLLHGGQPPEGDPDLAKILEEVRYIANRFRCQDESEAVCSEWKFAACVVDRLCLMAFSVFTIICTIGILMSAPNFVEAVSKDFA

[11] = target: T3, Glutamate NMDA receptor (Rattus norvegicus) (UniProt P35439+Q00959+Q00960+Q00961+Q62645+Q8VHN2+Q9R1M7); assay: Displacement of [3H]TCP from NMDA receptor in Wistar rat cerebral cortex at 10 uM by displacement binding assay; assay type: tissue-based
[12] = Drug uptake in NMRI mouse brain at 1 mg/kg, ip measured after 1 hr by HPLC-MS/MS analysis; assay type: ADME, organism-based; conditions: read-out: Ct
[13] = Mutagenicity in Salmonella typhimurium TA1537 in presence of rat liver S9 fraction by AMES test; assay type: toxicity, subcellular; conditions: salmonella enterica subsp. enterica serovar typhimurium
[14] = Drug uptake in Wistar rat brain at 3 mg/kg, ip measured after 35 mins by HPLC-MS/MS analysis; assay type: ADME, organism-based; conditions: read-out: Ct
[15] = Efflux ratio of apparent permeability from basolateral to apical side over apical to basolateral side in vinblastine-treated human Caco-2 cells expressing P-glycoprotein at 10 uM incubated for 120 mins by HPLC analysis; assay type: ADME
[16] = target: GABA-A receptor; alpha-1/beta-3/gamma-2 (Homo sapiens) (UniProt P14867+P18507+P28472); assay: Activation of human alpha1beta3gamma2 GABAA receptor expressed in HEK293 cells assessed as enhancement of GABA induced channel current response at 1 to 10 uM measured after 7 to 10 mins at -80 mV holding potential by whole-cell patch clamp assay; assay type: cell-based; conditions: dose 1-10 µM, time 7-10 min
[17] = Metabolic stability in Wistar rat liver microsomes assessed as intrinsic clearance at 1 uM measured per mg protein upto 40 mins; assay type: ADME, Microsome; conditions: read-out: CLH
[18] = Plasma concentration in NMRI mouse at 0.1 mg/kg, ip measured after 1 hr by HPLC-MS/MS analysis; assay type: ADME, organism-based
[19] = target: T1, Neuronal acetylcholine receptor; alpha3/beta4 (Homo sapiens); assay: Positive allosteric modulator activity at alpha3beta4 nAChR (unknown origin) upto 10 uM by automated Q-patch clamp assay; conditions: dose microM <=10
[20] = Drug uptake in NMRI mouse brain at 0.3 mg/kg, ip measured after 1 hr by HPLC-MS/MS analysis; assay type: ADME, organism-based; conditions: read-out: Ct
[21] = Plasma concentration in NMRI mouse at 3 mg/kg, ip measured after 1 hr by HPLC-MS/MS analysis; assay type: ADME, organism-based
[22] = Lipophilicity, logP of the compound; assay type: physicochemical; conditions: octanol/water
[23] = target: T3, Glutamate NMDA receptor (Rattus norvegicus); assay: Displacement of [3H]MDL105519 from NMDA receptor in Wistar rat cerebral cortex at 10 uM by displacement binding assay; assay type: tissue-based
[24] = Kinetic solubility of compound; assay type: physicochemical; conditions: read-out: Kinetic_solubility
[25] = Mutagenicity in Salmonella typhimurium TA98 in presence of rat liver S9 fraction by AMES test; assay type: toxicity, subcellular; conditions: salmonella enterica subsp. enterica serovar typhimurium
[26] = Drug uptake in Wistar rat brain at 10 mg/kg, ip measured after 35 mins by HPLC-MS/MS analysis; assay type: ADME, organism-based; conditions: read-out: Ct
[27] = target: GABA-A receptor; anion channel (Rattus norvegicus) (UniProt O09028+P15431+P18506+P18508+P19969+P20236+P23574+P23576+P28471+P28473+P30191+P62813+P63079+P63138+Q91ZM7+Q9ES14); assay: Displacement of [3H]flunitrazepam from GABAA receptor in Wistar rat brain without cerebellum at 10 uM by displacement binding assay; assay type: tissue-based
[28] = Mutagenicity in Salmonella typhimurium TA1535 in presence of rat liver S9 fraction by AMES test; assay type: toxicity, subcellular; conditions: salmonella enterica subsp. enterica serovar typhimurium
[29] = Plasma concentration in Wistar rat at 10 mg/kg, ip measured after 35 mins by HPLC-MS/MS analysis; assay type: ADME, organism-based
[30] = Plasma concentration in Wistar rat at 1 mg/kg, ip measured after 35 mins by HPLC-MS/MS analysis; assay type: ADME, organism-based
[31] = Drug uptake in Wistar rat brain at 1 mg/kg, ip measured after 35 mins by HPLC-MS/MS analysis; assay type: ADME, organism-based; conditions: read-out: Ct
[32] = target: T2, Neuronal acetylcholine receptor subunit alpha-7; assay: Positive allosteric modulation of human alpha7 nAChR expressed in HEK293 cells assessed as increase in peak current amplitude measured after 6 to 10 mins at -80 mV holding potential by automated whole cell patch clamp analysis; assay type: cell-based
[33] = Metabolic stability in human liver microsomes assessed as intrinsic clearance at 1 uM measured per mg protein upto 40 mins; assay type: ADME, Microsome; conditions: read-out: CLH
[34] = Drug uptake in NMRI mouse brain at 0.1 mg/kg, ip measured after 1 hr by HPLC-MS/MS analysis; assay type: ADME, organism-based; conditions: read-out: Ct
[35] = Ratio of drug level in NMRI mouse brain to plasma at 0.3 mg/kg, ip measured after 1 hr by HPLC-MS/MS analysis; assay type: ADME, organism-based; conditions: read-out: BPR
[36] = target: T2, Neuronal acetylcholine receptor subunit alpha-7; assay: Positive allosteric modulator activity at human alpha7 nAChR expressed in Flp-In-HEK293 cells co-expressing RIC-3 assessed as potentiation of PNU282987-induced calcium influx measured after 10 mins by FLIPR assay; assay type: cell-based, Flp-In-293; conditions: read-out: EC50
[37] = Mutagenicity in Escherichia coli WP2 uvrA in absence of rat liver S9 fraction by AMES test; assay type: toxicity
Rattus norvegicus = assay: Cognitive enhancing effect in Hannover Wistar rat assessed as increase in novel object recognition index at 1 to 10 mg/kg, po administered 30 mins prior to recognition trail by novel object recognition test; assay type: functional, organism-based; conditions: dose 1-10 mg/kg
[38] = target: 5-hydroxytryptamine receptor 2B (Homo sapiens) (UniProt P41595); assay: Binding affinity to human recombinant 5-HT2B receptor assessed as displacement of radioligand at 10 uM by displacement binding assay
5-hydroxytryptamine receptor 2B (Homo sapiens), sequence (P41595 whole entry): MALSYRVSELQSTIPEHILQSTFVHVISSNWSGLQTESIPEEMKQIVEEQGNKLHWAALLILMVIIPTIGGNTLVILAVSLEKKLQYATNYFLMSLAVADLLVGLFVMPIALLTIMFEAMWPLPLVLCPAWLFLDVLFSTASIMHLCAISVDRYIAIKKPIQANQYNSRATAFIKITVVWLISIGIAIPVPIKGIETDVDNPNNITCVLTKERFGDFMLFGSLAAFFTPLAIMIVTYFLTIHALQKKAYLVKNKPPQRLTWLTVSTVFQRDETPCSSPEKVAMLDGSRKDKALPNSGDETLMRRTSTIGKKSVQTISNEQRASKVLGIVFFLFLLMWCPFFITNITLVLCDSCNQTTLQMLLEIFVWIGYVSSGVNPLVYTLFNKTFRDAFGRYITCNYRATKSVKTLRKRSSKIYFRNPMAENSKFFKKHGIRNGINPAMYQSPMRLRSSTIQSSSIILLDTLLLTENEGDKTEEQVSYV

For `Cc1ccc(CN2CCN(C(=O)C(=O)Nc3ccc4c(ccn4C)c3)CC2)cc1`, which Kp at 35 min [1] is on record?
Its Kp at 35 min is 3.8.

And the Activity [2]?
Its Activity is “Non-Toxic”.

What about the Activity [3] of the same compound?
The Activity was “inactive”.

And the concentration at 1 h [4]?
The concentration at 1 h was 4.3 nM.

What about the Activity [5] of the same compound?
Its Activity is “Non-Toxic”.

What about the concentration at 35 min [6] of the same compound?
The concentration at 35 min was 54 nM.

And the Activity [7]?
Its Activity is “Non-Toxic”.

And the Kp at 35 min [8]?
Its Kp at 35 min is 4.93.

What about the Kp at 35 min [9] of the same compound?
Its Kp at 35 min is 4.01.

What about the Activity [10] of the same compound?
Its Activity is “Active”.

And the inhibition [11]?
The inhibition was under 15%.

And the concentration at 1 h [12]?
The concentration at 1 h was 39 nM.

What about the Activity [13] of the same compound?
The Activity was “Non-Toxic”.

What about the concentration at 35 min [14] of the same compound?
Its concentration at 35 min is 207 nM.

What about the efflux ratio at 2 h, 10 µM [15] of the same compound?
Its efflux ratio at 2 h, 10 µM is 0.7.

What about the Activity [16] of the same compound?
Its Activity is under 7%.

What about the microsomal CLint at 1 µM [17] of the same compound?
The microsomal CLint at 1 µM was 158 µL/min/mg.

What about the concentration at 1 h [18] of the same compound?
The concentration at 1 h was 2.1 nM.

And the Activity [19]?
The Activity was “inactive”.

What about the concentration at 1 h [20] of the same compound?
The concentration at 1 h was 5.5 nM.

What about the concentration at 1 h [21] of the same compound?
Its concentration at 1 h is 37 nM.

What about the logP [22] of the same compound?
Its logP is 3.7.

What about the inhibition [23] of the same compound?
Its inhibition is under 15%.

And the solubility kinetic [24]?
Its solubility kinetic is 41.6 µM (≈ 16.2 µg/mL).

And the Activity [25]?
Its Activity is “Non-Toxic”.

What about the concentration at 35 min [26] of the same compound?
Its concentration at 35 min is 657 nM.

And the inhibition [27]?
The inhibition was under 15%.

And the Activity [28]?
The Activity was “Non-Toxic”.

What about the concentration at 35 min [29] of the same compound?
The concentration at 35 min was 196 nM.

What about the concentration at 35 min [30] of the same compound?
Its concentration at 35 min is 28 nM.

And the concentration at 35 min [31]?
The concentration at 35 min was 135 nM.

What about the EC50 [32] of the same compound?
Its EC50 is 710 nM.

What about the microsomal CLint at 1 µM [33] of the same compound?
Its microsomal CLint at 1 µM is 15 µL/min/mg.

And the concentration at 1 h [34]?
The concentration at 1 h was 3.1 nM.

And the Kp at 1 h [35]?
The Kp at 1 h was 1.22.

And the EC50 [36]?
The EC50 was 90 nM.

And the Activity [37]?
Its Activity is “Non-Toxic”.

What about the Activity (Rattus norvegicus) of the same compound?
The Activity was “inactive”.

What about the inhibition [38] of the same compound?
The inhibition was 98%.
